The values that follow come from patent publication US20060025483A1, “(-)-Hydroxycitric acid for protection against soft tissue and arterial calcification” (priority 2004, published 2006).

The test system of series [1] is systolic blood pressure. The series can be described thus: earlier study of SBP not described here. The following applies: 120 mg HCA per day. In kind it is in vivo.
In the next series the test system is insulin. The series is described as follows: circulating insulin concentrations. In kind it is in vivo, Sprague-Dawley Rats. An excerpt:
(§1) A known effect of ACE inhibitors is a reduction in elevated systolic blood pressure. To test this, the following protocol was employed: Sprague-Dawley Rats (SD), approximately 8 weeks of age were obtained. Six groups of eight male SD received the same standard rat chow manufactured to specifications. The special diets derived 30% of calories from fats (one half from lard and one half from corn oil), 50% from carbohydrates, and 20% from proteins. Twenty percent of dietary calories was derived from sucrose and the preponderance of the remaining carbohydrate calories was derived from dextrin. During weekdays (M-F), each group was gavaged twice daily with a solution containing a commercial source of potassium hydroxycitrate (KHCA), a commercial source of potassium-calcium hydroxycitrate (KCaHCA), or a pre-commercial non-salt source of potassium-magnesium hydroxycitrate (KMgHCA, listed as KMgHCA L-Low, M-Intermediate or H-High depending upon the dose). Over the weekends (S-S), a similar quantity of the weekday daily dose was added to twenty grams of food, that is, an amount of food estimated to be close to the daily intake of the animals. At initiation of study and four weeks, and eight weeks later, bloods were drawn from all SD for routine blood chemistries. Body weight (BW) was measured weekly and systolic blood pressure (SBP) was measured every two weeks.
(§2) Statistical Analyses: Results are presented as mean±SEM. Many statistics were performed by one-way analysis of variance (ANOVA). SBP and BW were examined by two-way analyses of variance (one factor being dietary group and the second factor being time of examination). Where a significant effect of diet was detected by ANOVA (p<0.05), the Dunnett t test was used to establish which differences between means reached statistical significance (p<0.05). If a Student's t test was employed, this is noted.

A short description of series [2]: body weight in the C-reactive protein study. In kind it is in vivo, rats. The following applies: by week 6; salt 76 mg/day. The text has this:
To test the properties of HCA in various forms under conditions similar to those found in human clinical trials, the inventor arranged for rats to be fed a diet in which 30% of the calories were obtained from fat under standard conditions, with a further approximately 20% of the calories being supplied as simple sugars. Such a dietary combination of fat and simple sugars is noted as promoting a variety of metabolic imbalances and dysfunctions. The rats were intubated twice daily with one of five HCA salts or placebo. On weekends, the HCA was added to the food at an approprate dosage. The amount of HCA in each arm of 8 animals was based on the minimum dosage which had been found effective in the form of the pure trisodium salt of HCA in tests by Hoffmann-La Roche in animals ingesting a 70% glucose diet, i.e., 0.33 mmoles/kg body weight HCA given twice per day. The HCA salts used were these: KCaHCA=a mixed potassium and calcium or double metal HCA salt commercially marketed as being entirely water soluble and of relatively high purity; KHCA=a relatively clean commercial potassium salt of HCA with a good mineral ligand attachment supplying 4467 mg potassium/100 grams of material; KMgHCA=three different dosage levels of an experimental potassium and magnesium salt with special characteristics, but suspected of being relatively unstable when exposed to stomach acid. […]

In series [3] the test system is systolic blood pressure. The series can be described thus: systolic blood pressure (SBP) by tail plethysmography, rats on 30% fat / sucrose diet. In kind it is in vivo, Sprague-Dawley Rats. The following applies: end of eight weeks.
Text: as §1
The HCA dosages in the arms varied. The dosage used in the KHCA arm was extrapolated from the recommended 1,500 mg HCA per day for humans consuming a normal diet (i.e., ≧30% calories derived from fats) advocated by a commercial seller of KHCA and claimed to have produced acceptable clinical results. The approximate equivalent for the rat model is 35.4 mg HCA per day, which we increased to 38.4 mg HCA per day for convenience in employing a 48% HCA potassium salt and to remain safely on the high side in practice. For the sake of comparison, a commercial KCaHCA salt (60% HCA) was chosen and delivered at an HCA dosage level of 48 mg per day, which slightly exceeded the lowest dosage of HCA found to be efficacious for inhibition of weight gain in rats in the early pharmaceutical trials (45.4 mg/day) using pure trisodium hydroxycitrate and a very low fat diet. The design thus utilized a realistic diet with rough equivalents of the HCA dosages claimed to be effective in both the human and rat models.
The experimental KMgHCA dosings varied considerably from that of the other two salts. […] As a result, the recalculated HCA doses for the experimental compound were a low dose (KMgHCA L) of 14 mg, an intermediate dose (KMgHCA M) of 28 mg and a high dose (KMgHCA H) of 84 mg per day. The difficulty in calculating the HCA content in this case is not unique inasmuch as there is as of yet no universally accepted method for calculating the HCA content of the various salts. Again, preparations yielded the equivalent of 48 mg HCA per day from KCaHCA and 38.4 mg HCA per day from KHCA.
Systolic Blood Pressure (SBP): SBP was estimated by tail plethysmography in unanesthetized rats after a brief warming period. Readings were taken approximately one minute apart. To be accepted, SBP measurements had to be virtually stable for a minimum of three consecutive readings.
as §2

Another series has as its system C-reactive protein. The series can be described thus: serum C-reactive protein, rats on 30% fat / simple sugar diet. In kind it is in vivo. Further details: key to CRP Modulation: ** = significant. The following applies: salt 76 mg/day; for Δ OD units after 4 wks: serum CRP, 1 unit equals 50 picograms/mL. The text has this:
To test the properties of HCA in various forms under conditions similar to those found in human clinical trials, the inventor arranged for rats to be fed a diet in which 30% of the calories were obtained from fat under standard conditions, with a further approximately 20% of the calories being supplied as simple sugars. Such a dietary combination of fat and simple sugars is noted as promoting a variety of metabolic imbalances and dysfunctions. The rats were intubated twice daily with one of five HCA salts or placebo. On weekends, the HCA was added to the food at an approprate dosage. The amount of HCA in each arm of 8 animals was based on the minimum dosage which had been found effective in the form of the pure trisodium salt of HCA in tests by Hoffmann-La Roche in animals ingesting a 70% glucose diet, i.e., 0.33 mmoles/kg body weight HCA given twice per day. The HCA salts used were these: KCaHCA=a mixed potassium and calcium or double metal HCA salt commercially marketed as being entirely water soluble and of relatively high purity; KHCA=a relatively clean commercial potassium salt of HCA with a good mineral ligand attachment supplying 4467 mg potassium/100 grams of material; KMgHCA=three different dosage levels of an experimental potassium and magnesium salt with special characteristics, but suspected of being relatively unstable when exposed to stomach acid. The KCaHCA and KHCA salts were 60% HCA delivered at the rate of approximately 76 mg/day. The KMgHCA salts were delivered at the rate of 76 mg/day (r), 38 mg/day (l) and 228 mg/day (h), but due to initial miscalculations of the water of crystallization, this salt was only 45% HCA rather than 60%. The proper dosage for the KMgHCA(r) should have been 100 mg/day; the half dose (I) should have been 50 mg/day, and the triple dose (h) should have been 300 mg/day to match the commercial salts.
Tests were performed for C-reactive protein. Data was obtained for the animals at start and then at week 4 based on serum. Optical Density (OD) readings in the test kit used were 1 unit equals 50 picograms/mL. The delta changes over the 4 weeks for each arm vs control are shown.

The subject of the next series is ACE system. The series is described as follows: response of SBP to losartan challenge. In kind it is in vivo, Spontaneously hypertensive rats (SHR). The following applies: at 6 hours; control SHR without HCA. The text has this:
Many factors can positively influence blood pressure, e.g., diuretics, antioxidants, regulators of sympathetic/parasympathetic tone, compounds that improve insulin sensitivity and so forth. Therefore, losartan, an angiotensin-2 receptor blocker, was utilized to discover whether the ACE system was involved in the results discussed in Example 1.
Spontaneously hypertensive rats (SHR) were placed on a diet composed of regular rat chow (60% w/w) and table sugar (40% w/w). This diet reliably elevates blood pressure in this animal model. One group received 100 mg HCA per day in the form of a new potassium-magnesium hydroxycitrate (different from that used in Example 1) via an added 5 g HCA per kg of food mix. Systolic blood pressure and body weight were tested as in Example 1 on a weekly basis.
When losartan was injected, the SBP of both groups decreased. At 6 hours, the SBP were essentially the same. […] Thus, HCA appears to decrease angiotensin-2 in rats and to lower elevated SBP. Although insulin regulation likely is a factor in the blood pressure modulating effect of HCA, this evidence argues that inhibition of ACE is also important. […]

The nature of series [4]: pilot open clinical weight loss trial with extremely obese patients. In kind it is in vivo, human. An excerpt: A multi-week pilot open clinical weight loss trial with extremely obese patients was planned to gauge the effects of a pouch delivery form of a potassium salt of (−)-hydroxycitrate under the normal circumstances faced in clinical practice with this patient population. Fourteen patients were enrolled, three of whom were diabetics on medications and several others who were suspected of suffering from insulin resistance. The patients ingested 3-4 grams of HCA per day in two divided doses. Aside from being informed that they must eat a carbohydrate-containing meal within one hour of taking the HCA and that they should avoid eating late in the day, they were not instructed to follow any special diet or exercise plan outside their normal habits and no caloric restriction was imposed. This particular form of potassium (−)-hydroxycitrate delivery typically was mixed into water or juice and consumed at mid-morning and mid-afternoon. The delivery was a water-soluble immediate release form. […] A number of patients continued on the program for 6 weeks. However, comparative data was good for only 3 weeks because two of the diagnosed diabetics experienced hypoglycemic reactions. Several other patients experienced good appetite suppression, yet also complained off episodic tiredness at the beginning of the program, a sign of low blood sugar. Two patients subsequently were placed on phentermine. […] The average weight loss over the 3 week period for these patients was approximately 3 pounds per person per week. […] At therapeutically effective dosages, HCA probably should be used with diabetic populations only under a physician's care.

The conditions of series [5]: rats; diet of 70% glucose and 1% fat; cited from earlier work.

For `O=C([O-])CC(O)(C(=O)[O-])C(O)C(=O)[O-].[Ca+2].[K+]` (stereo not drawn) [KCaHCA, potassium-calcium hydroxycitrate], the SBP entry with systolic blood pressure [1] is on record as “decrease in SBP”. For the same molecule, in the series with insulin (48 mg HCA per day), the “trend of circulating insulin” value is listed as “did not show a trend toward lower circulating insulin”. In addition, the “body weight, trend difference from control” value in series [2] is given as “greatest trend differences”. Also, in the series on systolic blood pressure [3] (48 mg HCA per day), the “SBP compared to control” value is reported as “significant decreases in SBP compared to control”. Further, in the series with C-reactive protein (4 wks), the “change in CRP compared with control, significance” value is “failed to yield significant results”. In addition, in the series with C-reactive protein, the “Δ OD units after 4 wks” value was determined as 56 OD units.

In the case of `O=C([O-])CC(O)(C(=O)[O-])C(O)C(=O)[O-].[K+].[K+].[K+]` (stereo not drawn) [KHCA, potassium hydroxycitrate], the “insulin, control versus arm alone, Student's t test” value with insulin (38.4 mg HCA per day) is “showed significance”. Further, the “average insulin concentrations vs control” value with insulin (38.4 mg HCA per day, not significant using ANOVA) is “lower”. Also, the “body weight, trend difference from control” value in series [2] is recorded as “greatest trend differences”. In addition, the “SBP compared to control” value with systolic blood pressure [3] (38.4 mg HCA per day) is on record as “significant decreases in SBP compared to control”. In the series with C-reactive protein (4 wks), the “CRP Modulation” value is reported as “**”. For the same molecule, the “Δ OD units after 4 wks” value in the series on C-reactive protein is −155 OD units.

With `CCCCc1nc(Cl)c(CO)n1Cc1ccc(-c2ccccc2-c2nn[nH]n2)cc1` [losartan, reference compound], the “decrease in SBP after losartan injection” value in the series on ACE system was −50±6.1.

Consider `O=C([O-])CC(O)(C(=O)[O-])C(O)C(=O)[O-].[K+].[K+].[K+]` (stereo not drawn) [potassium (−)-hydroxycitrate], for which the average weight loss result in series [4] (3-4 grams of HCA per day in two divided doses, over the 3 week period) is “approximately 3 pounds per person per week”. Moreover, the tolerability entry in series [4] (apart from inconvenience and poor taste) is on record as “no other issues of tolerability”. In series [4] (immediate release format, diabetics, 3-4 grams of HCA per day), the hypoglycemic effect result is “strong hypoglycemic effect in diabetics”. The weight loss in series [4] (one patient, over 10 weeks) is recorded as 32 pounds.

For `O=C([O-])CC(O)(C(=O)[O-])C(O)C(=O)[O-].[Na+].[Na+].[Na+]` (stereo not drawn) [trisodium hydroxycitrate], the “lowest dose shown to be efficacious in reducing weight gain” value in series [5] was 0.33 mmol/kg twice a day.
